The results in this text go back to patent US20210024545A1, “SUBSTITUTED DIAZAHETERO-BICYCLIC COMPOUNDS AND THEIR USE” (Bayer Aktiengesellschaft, priority 2016, published 2021).

One experiment deals with human TASK-1 (Homo sapiens, UniProt O14649). Kind of experiment: Inhibition of recombinant TASK-1 in stably transfected CHO cells, KCl-induced depolarization, voltage-sensitive dye (B-2). The experiment is classed as cell-based. Set-up: expressed in transfected cells; host or cells: stably transfected CHO cells. As to conditions: depolarization induced by 40 mM potassium chloride, some mean values from multiple determinations. On the procedure:
(§1) B-2. Inhibition of Recombinant TASK-1 and TASK-3 In Vitro
(§2) The investigations on the inhibition of the recombinant TASK-1 and TASK-3 channels were conducted using stably transfected CHO cells. The compounds of the invention were tested here with administration of 40 mM of potassium chloride in the presence of a voltage-sensitive dye using the method described in detail in the following references [Whiteaker et al., Validation of FLIPR membrane potential dye for high-throughput screening of potassium channel modulators, J. Biomol. Screen. 6 (5), 305-312 (2001); Molecular Devices FLIPR Application Note: Measuring membrane potential using the FLIPR® membrane potential assay kit on Fluorometric Imaging Plate Reader (FLIPR®) systems, http://www.moleculardevices.com/reagents-supplies/assay-kits/ion-channels/flipr-membrane-potential-assay-kits]. The activity of the test substances was determined as their ability to inhibit a depolarization induced in the recombinant cells by 40 mM potassium chloride. The concentration which can block half of this depolarization is referred to as IC50).
(§3) Table 2 below lists the IC50 values from this assay determined for individual working examples of the invention (some as mean values from multiple independent individual determinations): […]

A further experiment addresses human TASK-3 (Homo sapiens, UniProt Q9NPC2). Kind of experiment: Inhibition of recombinant TASK-3 in stably transfected CHO cells, KCl-induced depolarization, voltage-sensitive dye (B-2). It is filed as cell-based. Set-up: expressed in transfected cells; host or cells: stably transfected CHO cells. Conditions: depolarization induced by 40 mM potassium chloride, some mean values from multiple determinations. The protocol: as §1, §2, §3

Each structure is given as a SMILES string.

Chain of human TASK-1 (O14649 whole entry): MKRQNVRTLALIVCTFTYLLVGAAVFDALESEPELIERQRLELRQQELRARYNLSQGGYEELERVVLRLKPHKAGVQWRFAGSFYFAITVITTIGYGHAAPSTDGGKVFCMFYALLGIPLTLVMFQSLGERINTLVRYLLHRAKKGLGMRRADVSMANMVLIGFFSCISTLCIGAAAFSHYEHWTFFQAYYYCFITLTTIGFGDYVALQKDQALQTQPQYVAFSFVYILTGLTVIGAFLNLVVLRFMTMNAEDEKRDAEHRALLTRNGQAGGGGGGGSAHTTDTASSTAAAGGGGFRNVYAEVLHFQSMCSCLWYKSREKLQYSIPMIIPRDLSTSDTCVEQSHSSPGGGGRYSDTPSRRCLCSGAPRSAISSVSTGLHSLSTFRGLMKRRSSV
Chain of human TASK-3 (Q9NPC2 whole entry): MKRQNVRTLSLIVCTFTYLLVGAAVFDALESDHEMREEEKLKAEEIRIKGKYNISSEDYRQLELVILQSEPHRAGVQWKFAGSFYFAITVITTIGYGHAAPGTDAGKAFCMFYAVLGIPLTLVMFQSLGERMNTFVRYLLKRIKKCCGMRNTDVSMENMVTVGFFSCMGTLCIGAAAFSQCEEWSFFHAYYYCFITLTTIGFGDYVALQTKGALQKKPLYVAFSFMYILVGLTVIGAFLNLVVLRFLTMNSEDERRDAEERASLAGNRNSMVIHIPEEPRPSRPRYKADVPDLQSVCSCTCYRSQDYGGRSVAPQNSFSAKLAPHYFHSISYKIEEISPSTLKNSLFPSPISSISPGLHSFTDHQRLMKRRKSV

By IC50 is commonly meant the concentration needed to halve the response being measured. Regarding `COc1ccc(F)c(C(=O)N2CC3CCC2CN3Cc2c(-c3ccc(C(C)C)nc3)nc3ccccn23)n1` (single isomer, unassigned) [Example 127, (3-Fluoro-6-methoxypyridin-2-yl)(5-{[2-(6-isopropylpyridin-3-yl)imidazo[1,2-a]pyridin-3-yl]methyl}-2,5-diazabicyclo[2.2.2]oct-2-yl)methanone], the IC50 at human TASK-1 is 9450 nM; on human TASK-3, 670 nM.
In the same order, the values of `COc1ccc(C)c(C(=O)N2CC3CCC2CN3Cc2c(-c3ccc(C(C)C)cc3)nc3ccccn23)n1` (single isomer, unassigned) [Example 137] are 190 nM and 14 nM.
Regarding `COc1ccc(C)c(C(=O)N2CC3CCC2CN3Cc2c(-c3ccc(Cl)cc3)nc3ccccn23)n1` (single isomer, unassigned) [Example 138], the results for the IC50 at human TASK-1 and on human TASK-3 were 75 nM and 6.8 nM, respectively.
For `COc1ccc(Cl)c(C(=O)N2C[C@@H]3CC[C@H]2CN3Cc2c(-c3ccc(Cl)cc3)nc3ccccn23)n1` (single isomer, unassigned; enantiomer 1) [Example 22] the same measures were 170 nM and 13 nM.
In the same order, the values of `COc1ccc(F)c(C(=O)N2C[C@@H]3CC[C@H]2CN3Cc2c(-c3ccc(Cl)cc3)nc3ccccn23)n1` (single isomer, unassigned; enantiomer 1) [Example 23] are 790 nM and 170 nM.
For `COc1ccc(Cl)c(C(=O)N2CC3CCC2CN3Cc2c(-c3ccc(Cl)cn3)nc3ccccn23)n1` (single isomer, unassigned; enantiomer 1) [Example 25, (3-Chloro-6-methoxypyridin-2-yl)(5-{[2-(5-chloropyridin-2-yl)imidaz[1,2-a]pyridin-3-yl]methyl}-2,5-diazabicyclo[2.2.2]oct-2-yl)methanone (enantiomer 1)] the same measures were 120 nM and 5.6 nM.
For the compound `O=C(c1cccc(OC(F)F)n1)N1CC2CCC1CN2Cc1c(-c2ccc(Cl)cn2)nc2ccccn12` (single isomer, unassigned; enantiomer 1) [Example 200, (5-{[2(5-Chloropyridin-2-yl)imidazo[1,2-a]pyridin-3-yl]methyl}-2,5-diazabicyclo[2.2.2]oct-2-yl)[6-(difluoromethoxy)pyridin-2-yl]methanone (enantiomer 1)], the IC50 was determined as 877 nM at human TASK-1 and 75 nM on human TASK-3.
`CC(C)(C)OC(=O)N1C2COCC1CN(Cc1c(-c3ccc(Cl)cc3)nc3ccccn13)C2` [Example 4, tert-Butyl 7-{[2-(4-chlorophenyl)imidazo[1,2-a]pyridin-3-yl]methyl}-3-oxa-7,9-diazabicyclo[3.3.1]nonane-9-carboxylate]: the IC50 at human TASK-1 came out at 560 nM; at human TASK-3, 43 nM.
As to `CC(C)(C)OC(=O)N1CC2CCC(C1)N2Cc1c(-c2ccc(Br)cc2)nc2ccccn12` [Example 5], the values for the IC50 on human TASK-1 and on human TASK-3 were 200 nM and 150 nM, respectively.
In the same order, the values of `CC(C)(C)OC(=O)N1CC2CCC(C1)N2Cc1c(-c2ccc(Cl)cc2)nc2ccccn12` [Example 6] are 394 nM and 410 nM.
In the same order, the values of `CC(C)(C)OC(=O)N1C2CCC1CN(Cc1c(-c3ccc(Cl)cc3)nc3ccccn13)C2` [Example 10] are 1090 nM and 230 nM.
Consider `CC(C)(C)OC(=O)N1C2CCC1CN(Cc1c(-c3ccc(Br)cc3)nc3ccccn13)C2` [Example 11], for which the figures for the half-maximal inhibitory concentration (IC50) at human TASK-1 and at human TASK-3 were 1400 nM and 940 nM, respectively.
In the same order, the values of `CC(C)c1ccc(-c2nc3ccccn3c2CN2CC3CCC(C2)N3C(=O)OC(C)(C)C)cc1` [Example 12] are 3000 nM and 8300 nM.
As for `CC(C)(C)OC(=O)N1C2CCC1CN(Cc1c(-c3ccc(Cl)cn3)nc3ccccn13)C2` [Example 14], the IC50 on human TASK-1 was 5100 nM; at human TASK-3 it was 860 nM.
For the compound `COc1ccc(F)c(C(=O)N2C3COCC2CN(Cc2c(-c4ccc(Cl)cc4)nc4ccccn24)C3)n1` [Example 30, (7-{[2-(4-Chlorophenyl)imidazo[1,2a]pyridin-3-yl]methyl}-3-oxa-7,9-diazabicyclo[3.3.1]non-9-yl)(3-fluoro-6-methoxypyridin-2-yl)methanone], the IC50 at human TASK-1 amounted to 770 nM; on human TASK-3, 21 nM.
In the same order, the values of `O=C(c1cccc(OC2CCC2)n1)N1C2COCC1CN(Cc1c(-c3ccc(Cl)cc3)nc3ccccn13)C2` [Example 31, (7-{[2-(4-Chlorophenyl)imidazo[1,2-a]pyridin-3-yl]methyl}-3-oxa-7,9-diazabicyclo[3.3.1]non-9-yl)[6-(cyclobutyloxy)pyridin-2-yl]methanone] are 310 nM and 26 nM.
Take `COc1ccc(Cl)c(C(=O)N2C3COCC2CN(Cc2c(-c4ccc(Cl)cc4)nc4ccccn24)C3)n1` [Example 32, (3-Chloro-6-methoxypyridin-2-yl)(7-{[2-(4-chlorophenyl)imidazo[1,2-a]pyridin-3-yl]methyl}-3-oxa-7,9-diazabicyclo[3.3.1]non-9-yl)methanone]: the IC50 on human TASK-1 was 270 nM; on human TASK-3, 9.6 nM.
In the same order, the values of `O=C(c1ccccc1F)N1CC2CCC1CN2Cc1c(-c2ccc(Cl)cn2)nc2ccccn12` (stereo not shown) [Example 64] are 280 nM and 17 nM.
With `COc1cccc(C(=O)N2CC3CCC2CN3Cc2c(-c3ccc(Cl)cn3)nc3ccccn23)n1` (stereo not shown) [Example 65], the figures for the IC50 on human TASK-1 and at human TASK-3 were 2000 nM and 460 nM, respectively.
In the same order, the values of `O=C(c1ccccc1F)N1C2COCC1CN(Cc1c(-c3ccc(Cl)cc3)nc3ccccn13)C2` [Example 69] are 870 nM and 101 nM.
In the same order, the values of `COc1cccc(C(=O)N2C3COCC2CN(Cc2c(-c4ccc(Cl)cc4)nc4ccccn24)C3)c1` [Example 70] are 1900 nM and 160 nM.
For `O=C(C1CCCC1)N1C2COCC1CN(Cc1c(-c3ccc(Cl)cc3)nc3ccccn13)C2` [Example 71] the same measures were 130 nM and 24 nM.
Turning to `O=C(c1cccc(OC(F)(F)F)c1)N1C2COCC1CN(Cc1c(-c3ccc(Cl)cc3)nc3ccccn13)C2` [Example 72], the IC50 was found to be 2000 nM on human TASK-1 and 120 nM at human TASK-3.
In the same order, the values of `CC(C)c1ccccc1C(=O)N1C2COCC1CN(Cc1c(-c3ccc(Cl)cc3)nc3ccccn13)C2` [Example 73] are 160 nM and 9.6 nM.
For `COc1ccc(Cl)c(C(=O)N2C3COCC2CN(Cc2c(-c4ccc(Cl)cc4)nc4ccccn24)C3)c1` [Example 74] the same measures were 330 nM and 23 nM.
For `COc1ccc(F)cc1C(=O)N1C2COCC1CN(Cc1c(-c3ccc(Cl)cc3)nc3ccccn13)C2` [Example 75], the IC50 was found to be 380 nM at human TASK-1 and 30 nM on human TASK-3.
For `CC(C)c1cccc(C(=O)N2C3COCC2CN(Cc2c(-c4ccc(Cl)cc4)nc4ccccn24)C3)c1` [Example 76] the same measures were 240 nM and 14 nM.
For `O=C(c1cccc(OCC(F)(F)F)n1)N1C2COCC1CN(Cc1c(-c3ccc(Cl)cc3)nc3ccccn13)C2` [Example 77] the same measures were 810 nM and 44 nM.
`O=C(C1CCOC1)N1C2COCC1CN(Cc1c(-c3ccc(Cl)cc3)nc3ccccn13)C2` (stereo not shown) [Example 78]: the IC50 on human TASK-1 was determined as 1600 nM; at human TASK-3 it was 65 nM.
